{
  "source": "BindingDB's records for doi:10.1016/s1074-5521(99)80118-5",
  "about": "(Princeton University, 1999)",
  "biological_target": "T1, Tyrosine-protein kinase ZAP-70 (Homo sapiens, UniProt P43403)",
  "T1 sequence (P43403 whole entry)": "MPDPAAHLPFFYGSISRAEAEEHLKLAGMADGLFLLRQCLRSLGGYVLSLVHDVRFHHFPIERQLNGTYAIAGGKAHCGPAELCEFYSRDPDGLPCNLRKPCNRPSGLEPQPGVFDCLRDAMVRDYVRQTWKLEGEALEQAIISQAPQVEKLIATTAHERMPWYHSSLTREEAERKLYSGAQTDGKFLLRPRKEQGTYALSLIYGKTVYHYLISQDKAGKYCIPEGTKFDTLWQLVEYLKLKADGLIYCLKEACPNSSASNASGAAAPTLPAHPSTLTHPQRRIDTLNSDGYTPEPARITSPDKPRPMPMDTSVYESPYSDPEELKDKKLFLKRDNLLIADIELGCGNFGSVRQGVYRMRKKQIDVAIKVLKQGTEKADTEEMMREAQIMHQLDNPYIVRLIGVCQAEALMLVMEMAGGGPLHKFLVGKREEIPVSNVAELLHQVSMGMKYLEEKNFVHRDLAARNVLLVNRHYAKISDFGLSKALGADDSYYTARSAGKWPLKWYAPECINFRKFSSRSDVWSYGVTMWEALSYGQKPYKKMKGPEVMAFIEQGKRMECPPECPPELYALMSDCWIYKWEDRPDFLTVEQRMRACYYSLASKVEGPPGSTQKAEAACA",
  "assay": "Inhibition Assay",
  "excerpt": "Inhibition of protein tyrosine kinases",
  "data": [
    {"compound": "Cc1ccc(-c2nn(C(C)(C)C)c3ncnc(N)c23)cc1", "values": [
      {"measurement": "IC50", "result": "> 100", "unit": "µM"}
    ]}
  ]
}
